Experimental data taken from article PMC4487204, “The Neisseria gonorrhoeae Obg protein is an essential ribosome-associated GTPase and a potential drug target” (BMC Microbiology, 2015).

What was measured:
N-His-ObgGC (NGO1990) [1] = molecular target: T1, N-His-ObgGC (NGO1990) (Neisseria gonorrhoeae, UniProt Q5F5D9); test: mant fluorescence enhancement, plate reader; type: binding; conditions: 2 uM protein, 50 mM Tris-HCl pH 8.0, 50 mM KCl, 37 C
T1 construct: gene obg

N-His-ObgGC (NGO1990) [2] = molecular target: T1, N-His-ObgGC (NGO1990); test: single-turnover hydrolysis, decrease of mant fluorescence; type: biochemical; conditions: 0.3 uM mant-GTP prebound to 16 uM protein, 5 mM MgCl2, pH 8.0, 37 C; first-order rate constant

T1 sequence (Q5F5D9 whole entry): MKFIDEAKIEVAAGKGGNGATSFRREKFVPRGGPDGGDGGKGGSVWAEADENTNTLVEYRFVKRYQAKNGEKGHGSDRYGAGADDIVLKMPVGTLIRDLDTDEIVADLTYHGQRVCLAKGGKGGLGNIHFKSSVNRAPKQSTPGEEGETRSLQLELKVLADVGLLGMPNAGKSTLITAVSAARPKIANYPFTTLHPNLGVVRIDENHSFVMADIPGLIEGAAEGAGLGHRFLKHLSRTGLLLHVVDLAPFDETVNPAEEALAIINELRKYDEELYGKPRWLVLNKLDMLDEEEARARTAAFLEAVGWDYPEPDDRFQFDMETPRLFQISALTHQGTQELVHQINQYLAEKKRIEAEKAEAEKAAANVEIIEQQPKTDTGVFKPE

| SMILES | fold enhancement in mant-nucleotide fluorescence (N-His-ObgGC (NGO1990) [1]; 0.3 uM mant-GDP, no Mg2+) [fold] | kh (N-His-ObgGC (NGO1990) [2]) [s⁻¹] | fold enhancement in mant-nucleotide fluorescence (N-His-ObgGC (NGO1990) [1]; 0.3 uM mant-GTP, 5 mM Mg2+) [fold] |
| --- | --- | --- | --- |
| CNc1ccccc1C(=O)O[C@H]1[C@@H](O)[C@H](n2cnc3c(=O)[nH]c(N)nc32)O[C@@H]1COP(=O)(O)OP(=O)(O)O [mant-GDP] | 1.3 | – | – |
| CNc1ccccc1C(=O)O[C@H]1[C@@H](O)[C@H](n2cnc3c(=O)[nH]c(N)nc32)O[C@@H]1COP(=O)(O)OP(=O)(O)OP(=O)(O)O [mant-GTP] | – | 0.00023 | 1.9 |
